In ChEMBL document CHEMBL1150020, “Optical isomers of RP 64406: New potent antiglutamate agents” (1993):

System: Rattus norvegicus
Experiment: Ability to protect against glutamate-induced convulsion in rat upon i.p. administration
Assay type: functional
[1] = Rattus norvegicus, ip, read-out: ED50

Compound: Nc1nc2ccc(OC(F)(F)F)cc2s1 [RILUZOLE]
- ED50 [1]: 3.2 mg/kg

Compound: C[S+]([O-])CCn1c(=N)sc2cc(OC(F)(F)F)ccc21 (single isomer, unassigned; (-))
- ED50 [1]: 1.6 mg/kg

Compound: C[S+]([O-])CCn1c(=N)sc2cc(OC(F)(F)F)ccc21 (stereo in doubt; 3)
- ED50: 1.1 mg/kg

Compound: C[S+]([O-])CCn1c(=N)sc2cc(OC(F)(F)F)ccc21 (single isomer, unassigned; (+))
- ED50: 1 mg/kg

Compound: CSCCn1c(=N)sc2cc(OC(F)(F)F)ccc21
- ED50 [1]: 1 mg/kg
